This is an account of results in patent US10736965B2, “Risperidone biodegradable implant” (The Trustees of the University of Pennsylvania, priority 2004, dated 2020).

SMILES strings stand for the structures. Values after ≈ are worked out from the molar mass of the structure shown. Where two headings read alike, the source gives them in different places.

The format of data set [1] is physicochemical. As to the method:
To evaluate the long-term stability of risperidone in physiological solution, 10 mg Risperidone was dissolved in 100 μl of acetonitrile for subsequent dissolution in 1,000 ml of PBS (0.9% NaCl, 0.01 M NaOH, 0.01 M NaH2PO4, pH 7.0) to yield a final solution of 10,000 nanograms (ng)/ml. The solution was shaken at 40 revolutions per minute in a light-safe amber bottle at 37° C. Drug concentration of a 1-ml sample was measured three times per week by UV spectroscopy (Amersham Biosciences, Buckinghamshire, UK). […] Studies were replicated using UV spectrophotometry and HPLC (FIG. 5).

The conditions of data set [2]: first 77 days.
A short description of another data set: Drug solubility in water. It counts as physicochemical. Conditions: measured after 14 days, distilled water, 21° C.; for solubility at 14 days: thermodynamic from solid. The text has this:
1-mL aliquots were removed at fixed time intervals and analyzed by UV Spectroscopy to determine maximum saturation concentration.

Data set [3] is described as follows: In vitro drug release assay from 50:50 PLGA pellets, fit to equation (4). Conditions: for Onset of drug release (induction time): 50:50 PLGA pellets, PBS 37° C.; for k (degradation reaction rate): fit of FIG. 10 data to equation (4), 50:50 PLGA, 20% drug load; for k, fit parameter: FIG. 11 legend. It counts as physicochemical. How it is done: 400 mg of 50:50 PLGA and 100 mg of drug were solvent cast to obtain a 20% by mass drug-load. Polymer and drug were dissolved in 45 milliliters (mL) acetone (Fisher Scientific, Inc.) and vortexed, then poured into an evaporation dish and placed in a vacuum oven at 40° C. under vacuum (3 inches Hg) with trace airflow. After seven days, dishes were removed from the oven. Evaporation residue was a thin film mixture of polymer and drug with homogenous appearance. The film was carefully weighed to confirm complete removal of solvent and pressed into four uniform disk-shaped pellets with 1 mm thickness and […], using a Teflon®-coated pellet press set at 25 (kilo-pounds) klb and 60° C. Pellets were carefully weighed and measured to determine densities. Negative control pellets with a 0% drug load were fabricated in the same manner, using 500 mg polymer and no drug.
Assays were performed in triplicate using three of each set of four uniform pellets. Each pellet was added to an amber-glass, capped jar (Wheaton, Inc.) containing 500 mL of a PBS solution and subjected to moderate shaking in the dark, at 37° C. 1-mL aliquots of were analyzed by UV Spectroscopy at fixed time intervals and. Positive control jars contained PBS and 10 mg of drug, the expected maximum release for a 20% drug-loaded pellet with a mass of 50 mg, and were also used to determine stability of each drug in saline solution over the course of the experiment.
The degradation reaction is likely to be a […] reaction between the polymer and water, and is thus proportional to the local concentration of both species. However, since the polymer comprises the majority of the pellet, its concentration is fixed everywhere. Thus, the degradation reaction is proportional to the local concentration of water (a function of the diffusivity) times a constant. Defining the diffusion coefficient of water into the polymer pellet as D, the diffusion/reaction equation for water is written as (1): […]
The model described by Equation (4) fit well the drug release data shown in FIG. 10 for all six drugs tested, with values of D and k as listed in Table 2 (the curves for haloperidol and aspirin are depicted in FIG. 11). This is notable because the drugs tested are diverse; e.g. haloperidol and aspirin are very different. The deviations seen at late time points arose from the finite size of the pellets.

The next data set can be described thus: in vivo. Conditions: rabbit. The text has this:
The concentration of drug as a function of time is a complex function. The error function can be approximated as erf(x)˜1−e^−7x/4, yielding equation 10 for the drug concentration. a1 is a constant equal to the total drug content of the implant, variable a2 is a constant equal to the metabolic rate, variable a3 reflects diffusion of drug from the implant and variable a4 reflects polymer degradation and influences total release interval.

As to `Cc1nc2n(c(=O)c1CCN1CCC(c3noc4cc(F)ccc34)CC1)CCCC2` [Risperidone], the “Stability in physiological solution” value in data set [1] was “stable”. The “Change in concentration of drug per day” value in data set [1] (PBS pH 7.0, 37° C.) worked out at 0.004 % per day. Further, the “Change in concentration of drug” value in data set [1] (over 343 days, PBS pH 7.0, 37° C., UV spectroscopy) was found to be 1.4%. The “Daily change in drug mass” value in data set [2] (pH 4.4) was 0.00%; in data set [2] (pH 5.4) it was 0.10%; in data set [2] (pH 6.4), 0.04%; in data set [2] (pH 7.4), 0.06%.

A word on the solubility: it is the dissolved amount per volume that the medium holds. Compound `CN1CCN(CCC=C2c3ccccc3Sc3ccc(S(=O)(=O)N(C)C)cc32)CC1` [Thiothixene, N,N-dimethyl-9-[3-(4-methylpiperazin-1-yl)propylidene]thioxanthene-2-sulfonamid] returned a solubility at 14 days in “Drug solubility in water” of 140 µg/mL (≈ 316 µM). Besides, in data set [3], the “Onset of drug release (induction time)” value was “released as soon as the experiment begins” and the “k (degradation reaction rate)” value came to 0.06 day⁻¹.

One may read the half-life as the time in which the quantity being followed falls by half. A lower half-life goes with rapid decline. On to `O=C(CCCN1CCC(O)(c2ccc(Cl)cc2)CC1)c1ccc(F)cc1` [Haloperidol, 4-[4-(4-chlorophenyl)-4-hydroxy-1-piperidyl]-1-(4-fluorophenyl)-butan-1-one], for which the concentration in solution in the data set “Drug solubility in water” (solubility at 14 days) was 130 µg/mL (≈ 346 µM). Also, in data set [3], the “Onset of drug release (induction time)” value is “exhibited an induction time”; the “k, fit parameter” value is “approximately 0.1 1/days”; the “k (degradation reaction rate)” value came out at 0.07 day⁻¹. In the data set “in vivo”, the “Coefficient τ” value is given as “≈ 0.027” and the half-life is roughly 2.17 h.

Regarding `NS(=O)(=O)c1cc2c(cc1Cl)NCNS2(=O)=O` [HCTZ, 9-chloro-5,5-dioxo-5λ6-thia-2,4-diazabicyclo[4.4.0]deca-6,8,10-triene-8-sulfonamide], the “k (degradation reaction rate)” value in data set [3] was 0.26 day⁻¹.

`CC(C)Cc1ccc(C(C)C(=O)O)cc1` (stereo not drawn) [Ibuprofen, 2-[4-(2-methylpropyl)phenyl]propanoic acid] gave a solubility at 14 days in the data set “Drug solubility in water” of 470 µg/mL (≈ 2280 µM). In data set [3], the “k, fit parameter” value is on record as “approximately 0.164 1/days” and the “k (degradation reaction rate)” value turned out to be 0.16 day⁻¹.

`CC(=O)Oc1ccccc1C(=O)O` [Aspirin, 2-acetyloxybenzoic acid] had a Water solubility in “Drug solubility in water” of 4990 µg/mL. Moreover, the “k (degradation reaction rate)” value in data set [3] stood at 0.06 day⁻¹.

The compound `CC12CCC(=O)C=C1CCC1C2C(O)CC2(C)C(C(=O)CO)CCC12` (stereo not drawn) [Corticosterone, 11-hydroxy-17-(2-hydroxyacetyl)-10,13-dimethyl-1,2,6,7,8,9,10,11,12,13,14,15,16,17-tetradecahydrocyclopenta[a]phenanthren-3-one] had a solubility at 14 days in the data set “Drug solubility in water” of 500 µg/mL (≈ 1440 µM). The “k (degradation reaction rate)” value in data set [3] was 0.33 day⁻¹.
